Patent publication US20150004110A1, “NOVEL ANTI-AGING AND DEPIGMENTING COSMETIC COMPOSITIONS” (DIVERCHIM, priority 2011, published 2015)

Key:
PPARδ (h) = biological target: T1, PPARδ (h) (Homo sapiens, UniProt Q03181); experiment: PPARδ agonist effect, coactivator Alpha screen; assay type: biochemical
T1 sequence (Q03181 1-441): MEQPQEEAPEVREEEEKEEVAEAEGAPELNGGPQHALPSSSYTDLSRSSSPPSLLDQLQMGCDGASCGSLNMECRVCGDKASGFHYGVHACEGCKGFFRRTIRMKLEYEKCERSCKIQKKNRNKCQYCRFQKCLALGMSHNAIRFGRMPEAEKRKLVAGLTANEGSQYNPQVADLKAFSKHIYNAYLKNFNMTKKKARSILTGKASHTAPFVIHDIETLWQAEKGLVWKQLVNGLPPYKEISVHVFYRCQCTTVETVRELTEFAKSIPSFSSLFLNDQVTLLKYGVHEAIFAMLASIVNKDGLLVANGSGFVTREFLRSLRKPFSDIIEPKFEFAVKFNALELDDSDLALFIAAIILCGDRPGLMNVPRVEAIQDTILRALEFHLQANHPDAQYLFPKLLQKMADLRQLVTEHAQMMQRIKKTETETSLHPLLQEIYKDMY
Description: The agonist or antagonist activity of compound 1 on the PPAR receptors was tested by fluorescence techniques. • Material and Methods
The results are expressed as: • percentage of control specific agonist response (measured specific response/control specific agonist response)×100) and • percentage inhibition of the control specific agonist response (100−((measured specific response)/control specific agonist response)×100)) obtained in the presence of compound 1.
The EC50 values (concentration at which the maximum specific response is 50%) and the IC50 values (concentration at which the maximum control specific agonist response is inhibited by 50%) are determined by non-linear regression analysis of the concentration-response curves with a mean replicated value using adjustment of Hill's equation

collagen III = experiment: Staining and immunolabelling of skin explant sections: collagen III; assay type: cell-based, human; conditions: treated skin explant sections
Description: 1. Preparation of the explants • During abdominoplasty of a person, 45 skin explants were prepared. The explants were put in BEM medium (BIO-EC's Explants Medium) for survival at 37° C. in humid atmosphere, enriched with 5% CO2.
2. Application of the products • The solutions are prepared in DMSO from pure products, in order to obtain final concentrations of […] by incorporating an identical volume of 10 μl in each well and for each treatment. The treatment was carried out in the survival medium on days 0, 1, 2, 5 and 7.
3. Taking samples • On D0, the 3 explants of batch TO were taken and each explant was cut in two. One part was fixed in buffered formol for observation of the general morphology. The other was frozen and stored at −80° C. • On D5 and D9, 3 explants from each batch were taken and treated in the same way.
4. Histological treatment • After fixation for 48 hours in buffered formol, the samples were dehydrated and embedded in paraffin using a Leica 1020 automatic dehydrator. They were embedded according to procedure MO-H-153 using a Leica EG 1160 coating station. Sections of 5 μm were prepared according to procedure MO-H-173 using a Minot-type microtome, Leica RM 2125 and mounted on Superfrost® histological glass slides.
6. Staining and immunolabelling
Immunolabelling will be carried out on sections with the appropriate antibody. […]

[1] = system: HSPB1, heat shock protein beta-1; experiment: RT-qPCR expression of HSPB1 in keratinocytes; assay type: cell-based, human; conditions: 10 μM
Description: The expression of the specific markers was evaluated by RT-qPCR (reverse transcription quantitative polymerase chain reaction) on messenger RNAs extracted from the cell lawns from each treatment. The transcriptomic profile contains 64 genes selected for their importance in keratinocyte differentiation. The PCR reactions (polymerase chain reactions) were carried out by quantitative PCR with the “Light Cycler” system (Roche Molecular System Inc.) according to the procedures recommended by the supplier. Normal human epidermal keratinocytes were incubated in the presence of compound 1 or a reference with calcium chloride. The expression of the specific markers was evaluated by RT-qPCR on the messenger RNAs extracted from the cell lawns from each treatment.

% Control agonist response (PPARδ (h); 10^−5 M): 2%
% Control agonist response (PPARδ (h); 10^−6 M): 4%
% Control agonist response (PPARδ (h); 10^−7 M): 2%
PPARδ agonist activity (conclusion in words) (PPARδ (h); 10^−7 to 10^−5 M): not an agonist
Compound: Oc1ccccc1CCOc1ccc(F)cc1 [Compound 1, 2-[2-(4-fluoro-phenoxy)-ethyl]-phenol]
Collagen III in the papillary dermis (collagen III): very slight densification
Expression of the stress protein HSPB1 [1]: inhibition of expression
